Experimental data from ChEMBL document CHEMBL3991601, “The target landscape of clinical kinase drugs” (Science, 2017).
The source made the active and inactive calls.

Tests used:
[1] = molecular target: NADH dehydrogenase [ubiquinone] 1 alpha subcomplex subunit 13 (Homo sapiens, UniProt Q9P0J0)
[2] = molecular target: cAMP-dependent protein kinase catalytic subunit beta (Homo sapiens, UniProt P22694)
[3] = molecular target: Serine/threonine-protein kinase MRCK alpha (Homo sapiens, UniProt Q5VT25)
[4] = molecular target: Platelet-derived growth factor receptor beta (Homo sapiens, UniProt P09619)
DNA topoisomerase 2-beta = DNA topoisomerase 2-beta (Homo sapiens, UniProt Q02880)
[5] = molecular target: T1, Delta(24)-sterol reductase (Homo sapiens, UniProt Q15392)
T1 sequence (Q15392 whole entry): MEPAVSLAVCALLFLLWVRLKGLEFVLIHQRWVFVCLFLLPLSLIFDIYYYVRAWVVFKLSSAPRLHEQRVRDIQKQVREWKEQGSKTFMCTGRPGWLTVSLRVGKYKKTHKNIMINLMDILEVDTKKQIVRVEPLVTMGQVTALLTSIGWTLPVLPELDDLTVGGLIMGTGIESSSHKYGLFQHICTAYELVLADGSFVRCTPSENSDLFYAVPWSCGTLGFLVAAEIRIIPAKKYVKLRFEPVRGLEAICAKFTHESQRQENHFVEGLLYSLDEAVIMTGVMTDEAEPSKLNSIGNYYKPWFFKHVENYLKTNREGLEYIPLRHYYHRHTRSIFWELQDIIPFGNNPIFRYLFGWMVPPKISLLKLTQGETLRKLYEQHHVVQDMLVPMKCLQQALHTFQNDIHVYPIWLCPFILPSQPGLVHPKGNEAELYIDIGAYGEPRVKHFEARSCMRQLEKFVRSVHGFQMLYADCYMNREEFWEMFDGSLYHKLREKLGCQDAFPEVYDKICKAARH

[6] = molecular target: Casein kinase II subunit alpha' (Homo sapiens, UniProt P19784)
[7] = molecular target: Atypical kinase COQ8A, mitochondrial (Homo sapiens, UniProt Q8NI60)
[8] = molecular target: T2, Serine/threonine-protein kinase PLK4 (Homo sapiens, UniProt O00444)
T2 sequence (O00444 whole entry): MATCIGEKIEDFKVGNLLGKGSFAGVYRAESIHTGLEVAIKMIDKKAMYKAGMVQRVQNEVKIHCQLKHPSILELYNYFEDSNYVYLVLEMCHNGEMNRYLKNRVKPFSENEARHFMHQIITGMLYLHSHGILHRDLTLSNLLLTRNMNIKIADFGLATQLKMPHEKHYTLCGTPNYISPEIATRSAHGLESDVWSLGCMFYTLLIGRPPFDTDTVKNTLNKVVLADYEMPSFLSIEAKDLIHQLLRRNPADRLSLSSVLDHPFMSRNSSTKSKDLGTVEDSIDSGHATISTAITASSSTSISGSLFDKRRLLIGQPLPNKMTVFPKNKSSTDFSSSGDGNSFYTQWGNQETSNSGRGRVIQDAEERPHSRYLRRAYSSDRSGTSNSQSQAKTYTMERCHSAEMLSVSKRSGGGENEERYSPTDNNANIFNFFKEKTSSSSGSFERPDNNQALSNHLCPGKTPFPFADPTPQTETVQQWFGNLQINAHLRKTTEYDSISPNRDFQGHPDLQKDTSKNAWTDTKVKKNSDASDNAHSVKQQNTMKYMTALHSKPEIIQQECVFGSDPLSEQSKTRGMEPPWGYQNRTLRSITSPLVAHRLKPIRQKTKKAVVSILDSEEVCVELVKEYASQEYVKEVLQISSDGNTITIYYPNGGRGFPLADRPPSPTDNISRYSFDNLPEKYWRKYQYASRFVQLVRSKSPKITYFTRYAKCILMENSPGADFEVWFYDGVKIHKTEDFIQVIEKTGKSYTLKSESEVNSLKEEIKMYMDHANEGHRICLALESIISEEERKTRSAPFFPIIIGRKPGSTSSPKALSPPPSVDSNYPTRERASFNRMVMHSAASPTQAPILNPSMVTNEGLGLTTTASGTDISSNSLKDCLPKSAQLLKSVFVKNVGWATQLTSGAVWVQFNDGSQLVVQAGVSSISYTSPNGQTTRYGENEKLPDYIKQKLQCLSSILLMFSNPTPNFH

[9] = molecular target: U5 small nuclear ribonucleoprotein 200 kDa helicase (Homo sapiens, UniProt O75643)
[10] = molecular target: Maternal embryonic leucine zipper kinase (Homo sapiens, UniProt Q14680)
[11] = molecular target: Serine/threonine-protein kinase PAK 4 (Homo sapiens, UniProt O96013)
[12] = molecular target: T3, ATP-dependent 6-phosphofructokinase, platelet type (Homo sapiens, UniProt Q01813)
T3 sequence (Q01813 whole entry): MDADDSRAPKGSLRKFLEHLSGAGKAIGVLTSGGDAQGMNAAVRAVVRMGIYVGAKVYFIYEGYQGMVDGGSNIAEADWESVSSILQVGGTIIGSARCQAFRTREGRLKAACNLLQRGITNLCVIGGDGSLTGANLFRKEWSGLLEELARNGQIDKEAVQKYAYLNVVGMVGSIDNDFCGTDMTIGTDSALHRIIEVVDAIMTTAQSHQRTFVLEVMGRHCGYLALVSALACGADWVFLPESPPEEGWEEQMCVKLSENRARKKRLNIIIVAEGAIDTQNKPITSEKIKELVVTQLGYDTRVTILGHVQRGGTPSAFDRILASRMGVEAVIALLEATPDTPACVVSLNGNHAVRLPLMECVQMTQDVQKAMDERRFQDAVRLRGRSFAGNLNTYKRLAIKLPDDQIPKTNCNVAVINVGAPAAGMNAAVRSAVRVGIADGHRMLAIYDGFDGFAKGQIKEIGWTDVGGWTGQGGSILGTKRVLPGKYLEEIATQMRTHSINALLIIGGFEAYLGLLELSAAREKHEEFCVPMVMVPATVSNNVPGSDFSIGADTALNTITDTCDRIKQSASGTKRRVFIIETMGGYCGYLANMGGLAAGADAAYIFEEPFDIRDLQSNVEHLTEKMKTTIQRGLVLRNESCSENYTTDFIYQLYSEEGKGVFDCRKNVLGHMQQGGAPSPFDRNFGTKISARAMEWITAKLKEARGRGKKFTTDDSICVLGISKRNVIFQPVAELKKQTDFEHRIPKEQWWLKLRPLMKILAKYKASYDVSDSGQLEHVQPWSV
Also: in the data inactive means no Kd found up to 30 µM.

Sequence of Maternal embryonic leucine zipper kinase (Q14680 whole entry): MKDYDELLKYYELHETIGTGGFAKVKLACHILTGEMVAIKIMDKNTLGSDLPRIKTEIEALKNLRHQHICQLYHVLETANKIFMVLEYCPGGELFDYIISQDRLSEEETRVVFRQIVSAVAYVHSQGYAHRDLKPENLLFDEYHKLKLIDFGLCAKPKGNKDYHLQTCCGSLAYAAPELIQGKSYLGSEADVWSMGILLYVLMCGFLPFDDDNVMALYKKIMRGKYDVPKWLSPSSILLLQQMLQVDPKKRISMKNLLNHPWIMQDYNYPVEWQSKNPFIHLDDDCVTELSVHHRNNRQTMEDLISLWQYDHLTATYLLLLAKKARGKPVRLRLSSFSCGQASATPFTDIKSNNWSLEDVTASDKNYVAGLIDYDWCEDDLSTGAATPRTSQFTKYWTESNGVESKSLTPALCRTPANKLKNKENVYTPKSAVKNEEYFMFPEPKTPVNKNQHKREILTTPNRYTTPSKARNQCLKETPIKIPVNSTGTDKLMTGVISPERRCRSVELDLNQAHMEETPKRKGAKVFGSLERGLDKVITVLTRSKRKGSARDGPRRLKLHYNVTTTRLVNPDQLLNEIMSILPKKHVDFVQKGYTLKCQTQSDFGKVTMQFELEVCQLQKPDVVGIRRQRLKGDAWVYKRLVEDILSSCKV
Sequence of Serine/threonine-protein kinase MRCK alpha (Q5VT25 whole entry): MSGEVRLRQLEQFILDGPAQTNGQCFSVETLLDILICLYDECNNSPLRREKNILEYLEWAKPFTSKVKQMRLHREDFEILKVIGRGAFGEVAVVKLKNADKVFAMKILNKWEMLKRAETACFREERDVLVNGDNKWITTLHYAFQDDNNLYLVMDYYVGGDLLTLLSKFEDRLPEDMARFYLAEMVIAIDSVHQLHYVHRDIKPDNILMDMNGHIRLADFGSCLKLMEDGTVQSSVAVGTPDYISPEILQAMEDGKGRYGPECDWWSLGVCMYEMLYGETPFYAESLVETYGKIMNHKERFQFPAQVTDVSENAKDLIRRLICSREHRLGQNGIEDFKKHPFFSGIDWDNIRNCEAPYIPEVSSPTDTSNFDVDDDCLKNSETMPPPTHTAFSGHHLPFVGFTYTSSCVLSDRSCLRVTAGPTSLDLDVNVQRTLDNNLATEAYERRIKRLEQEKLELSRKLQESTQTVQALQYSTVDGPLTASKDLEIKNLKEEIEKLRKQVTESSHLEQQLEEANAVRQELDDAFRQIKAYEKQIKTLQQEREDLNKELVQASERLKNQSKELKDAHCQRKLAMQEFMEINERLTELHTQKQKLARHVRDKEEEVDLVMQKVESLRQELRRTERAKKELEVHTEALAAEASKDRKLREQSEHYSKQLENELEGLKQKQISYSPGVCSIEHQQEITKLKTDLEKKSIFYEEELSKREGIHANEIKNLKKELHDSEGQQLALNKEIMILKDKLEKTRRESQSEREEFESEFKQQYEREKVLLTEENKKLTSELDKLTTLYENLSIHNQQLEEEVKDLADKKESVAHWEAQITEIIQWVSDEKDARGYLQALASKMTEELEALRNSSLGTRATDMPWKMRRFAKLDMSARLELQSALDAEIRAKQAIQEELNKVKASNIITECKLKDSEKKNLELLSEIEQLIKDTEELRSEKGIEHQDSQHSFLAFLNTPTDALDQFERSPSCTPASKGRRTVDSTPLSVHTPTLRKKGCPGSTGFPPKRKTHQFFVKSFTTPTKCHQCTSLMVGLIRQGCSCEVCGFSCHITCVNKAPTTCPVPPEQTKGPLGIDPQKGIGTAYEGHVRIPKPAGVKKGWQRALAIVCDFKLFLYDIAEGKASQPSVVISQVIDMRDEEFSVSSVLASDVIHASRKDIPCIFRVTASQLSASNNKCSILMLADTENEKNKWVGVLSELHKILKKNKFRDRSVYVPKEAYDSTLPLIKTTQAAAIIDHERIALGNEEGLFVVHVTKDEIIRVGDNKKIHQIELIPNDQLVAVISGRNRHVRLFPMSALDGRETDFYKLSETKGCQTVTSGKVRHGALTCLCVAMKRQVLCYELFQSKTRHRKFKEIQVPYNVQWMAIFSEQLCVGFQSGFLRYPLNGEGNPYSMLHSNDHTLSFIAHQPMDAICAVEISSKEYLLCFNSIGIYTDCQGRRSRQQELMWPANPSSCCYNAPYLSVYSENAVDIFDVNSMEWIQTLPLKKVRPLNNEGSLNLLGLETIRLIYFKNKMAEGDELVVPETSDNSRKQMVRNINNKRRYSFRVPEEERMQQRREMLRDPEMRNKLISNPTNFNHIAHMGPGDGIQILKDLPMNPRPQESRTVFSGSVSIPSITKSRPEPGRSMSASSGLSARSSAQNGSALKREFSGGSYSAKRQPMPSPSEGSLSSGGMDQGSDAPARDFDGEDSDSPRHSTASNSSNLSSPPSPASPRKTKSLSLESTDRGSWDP
Sequence of Atypical kinase COQ8A, mitochondrial (Q8NI60 whole entry): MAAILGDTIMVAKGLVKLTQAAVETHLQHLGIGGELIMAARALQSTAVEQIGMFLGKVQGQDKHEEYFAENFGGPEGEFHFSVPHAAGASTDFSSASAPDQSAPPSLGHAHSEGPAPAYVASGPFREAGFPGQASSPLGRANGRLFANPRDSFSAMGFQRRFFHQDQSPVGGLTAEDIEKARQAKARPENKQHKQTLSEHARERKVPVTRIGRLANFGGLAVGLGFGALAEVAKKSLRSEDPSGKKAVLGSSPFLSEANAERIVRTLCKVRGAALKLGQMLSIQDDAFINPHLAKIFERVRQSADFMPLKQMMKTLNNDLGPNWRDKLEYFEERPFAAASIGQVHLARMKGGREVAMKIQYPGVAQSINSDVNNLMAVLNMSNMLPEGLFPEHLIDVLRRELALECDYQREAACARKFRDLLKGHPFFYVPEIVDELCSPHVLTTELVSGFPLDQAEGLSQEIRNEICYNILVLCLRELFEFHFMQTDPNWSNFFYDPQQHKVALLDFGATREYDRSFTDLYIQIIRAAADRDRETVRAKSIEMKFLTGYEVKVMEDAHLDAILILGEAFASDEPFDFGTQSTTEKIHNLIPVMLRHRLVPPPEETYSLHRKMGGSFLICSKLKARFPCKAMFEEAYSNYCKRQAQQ
Sequence of Platelet-derived growth factor receptor beta (P09619 whole entry): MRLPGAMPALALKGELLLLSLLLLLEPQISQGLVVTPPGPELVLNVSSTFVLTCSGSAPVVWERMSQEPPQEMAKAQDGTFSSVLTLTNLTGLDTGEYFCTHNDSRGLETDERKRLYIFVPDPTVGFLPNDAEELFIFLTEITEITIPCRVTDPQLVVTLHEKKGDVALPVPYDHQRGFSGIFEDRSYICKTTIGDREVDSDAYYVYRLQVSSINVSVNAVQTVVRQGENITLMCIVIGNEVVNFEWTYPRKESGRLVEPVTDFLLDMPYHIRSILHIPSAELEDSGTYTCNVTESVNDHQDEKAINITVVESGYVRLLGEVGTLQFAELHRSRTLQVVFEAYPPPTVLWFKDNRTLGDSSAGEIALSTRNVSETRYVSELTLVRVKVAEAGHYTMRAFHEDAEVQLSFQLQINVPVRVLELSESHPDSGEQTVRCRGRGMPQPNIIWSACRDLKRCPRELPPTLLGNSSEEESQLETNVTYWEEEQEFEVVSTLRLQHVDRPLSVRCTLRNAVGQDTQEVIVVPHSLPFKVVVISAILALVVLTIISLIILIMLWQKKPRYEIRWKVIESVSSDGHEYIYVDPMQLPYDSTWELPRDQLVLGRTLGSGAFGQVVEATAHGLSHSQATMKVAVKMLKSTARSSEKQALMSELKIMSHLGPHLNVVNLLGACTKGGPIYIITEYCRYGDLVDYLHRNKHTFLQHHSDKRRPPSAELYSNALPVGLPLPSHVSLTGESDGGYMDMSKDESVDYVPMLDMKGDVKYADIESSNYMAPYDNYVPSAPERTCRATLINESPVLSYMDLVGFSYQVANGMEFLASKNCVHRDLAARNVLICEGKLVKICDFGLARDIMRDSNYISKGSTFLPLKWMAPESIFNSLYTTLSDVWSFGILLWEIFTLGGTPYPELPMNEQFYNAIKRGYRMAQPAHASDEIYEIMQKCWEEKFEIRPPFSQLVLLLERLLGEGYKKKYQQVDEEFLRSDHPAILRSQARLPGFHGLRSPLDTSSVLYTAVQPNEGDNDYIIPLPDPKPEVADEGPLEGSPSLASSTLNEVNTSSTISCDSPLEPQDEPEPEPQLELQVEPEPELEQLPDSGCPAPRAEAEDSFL
Sequence of Serine/threonine-protein kinase PAK 4 (O96013 whole entry): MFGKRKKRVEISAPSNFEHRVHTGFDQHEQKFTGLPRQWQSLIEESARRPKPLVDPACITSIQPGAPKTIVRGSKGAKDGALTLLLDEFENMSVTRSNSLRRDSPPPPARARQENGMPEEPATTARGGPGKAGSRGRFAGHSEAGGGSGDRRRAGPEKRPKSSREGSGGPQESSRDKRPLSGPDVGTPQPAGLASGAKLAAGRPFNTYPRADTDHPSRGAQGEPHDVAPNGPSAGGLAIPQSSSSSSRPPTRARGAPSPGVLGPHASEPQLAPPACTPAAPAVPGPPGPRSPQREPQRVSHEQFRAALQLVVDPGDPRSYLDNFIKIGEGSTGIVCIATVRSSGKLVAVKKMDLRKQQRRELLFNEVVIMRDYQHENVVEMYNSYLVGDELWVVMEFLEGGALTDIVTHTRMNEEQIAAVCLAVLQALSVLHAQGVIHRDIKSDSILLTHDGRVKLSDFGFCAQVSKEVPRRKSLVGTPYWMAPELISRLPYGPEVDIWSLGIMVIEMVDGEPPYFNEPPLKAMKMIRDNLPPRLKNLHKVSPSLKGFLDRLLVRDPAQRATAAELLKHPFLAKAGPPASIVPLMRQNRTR
Sequence of NADH dehydrogenase [ubiquinone] 1 alpha subcomplex subunit 13 (Q9P0J0 whole entry, one chain of several): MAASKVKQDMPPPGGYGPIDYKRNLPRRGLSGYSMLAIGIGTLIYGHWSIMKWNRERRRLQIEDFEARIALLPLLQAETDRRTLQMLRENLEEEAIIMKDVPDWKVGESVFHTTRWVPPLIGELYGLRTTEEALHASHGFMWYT

C[C@@H](Oc1cc(C(=O)Nc2ccc(C(=O)N3CCN(C)CC3)cc2)nnc1N)c1c(Cl)ccc(F)c1Cl
Kd [1]: > 30 µM (inactive) | Kd [2]: > 30 µM (inactive) | Kd [3]: > 30 µM (inactive) | Kd [4]: > 30 µM (inactive) | Kd (DNA topoisomerase 2-beta): > 30 µM (inactive) | Kd [5]: > 30 µM (inactive) | Kd [6]: > 30 µM (inactive) | Kd [7]: > 30 µM (inactive) | Kd [8]: > 30 µM (inactive) | Kd [9]: > 30 µM (inactive) | Kd [10]: > 30 µM (inactive) | Kd [11]: > 30 µM (inactive)

C[C@H]1CNCCCN1S(=O)(=O)c1cccc2cncc(F)c12
Kd [1]: > 30 µM (inactive) | Kd [2]: > 30 µM (inactive) | Kd [12]: > 30 µM (inactive) | Kd [4]: > 30 µM (inactive) | Kd (DNA topoisomerase 2-beta): > 30 µM (inactive) | Kd [5]: > 30 µM (inactive) | Kd [6]: > 30 µM (inactive) | Kd [7]: > 30 µM (inactive) | Kd [8]: 8.14 µM (active) | Kd [9]: > 30 µM (inactive) | Kd [10]: > 30 µM (inactive) | Kd [11]: > 30 µM (inactive)

Cc1nc(NC(=O)N2CCC[C@H]2C(N)=O)sc1-c1ccnc(C(C)(C)C(F)(F)F)c1 [ALPELISIB]
Kd [2]: > 30 µM (inactive) | Kd [12]: > 30 µM (inactive) | Kd [3]: > 30 µM (inactive) | Kd [4]: > 30 µM (inactive) | Kd (DNA topoisomerase 2-beta): > 30 µM (inactive) | Kd [5]: > 30 µM (inactive) | Kd [6]: > 30 µM (inactive) | Kd [7]: > 30 µM (inactive) | Kd [8]: > 30 µM (inactive) | Kd [9]: > 30 µM (inactive) | Kd [10]: > 30 µM (inactive) | Kd [11]: > 30 µM (inactive)

O=C(Nc1c[nH]nc1-c1nc2cc(CN3CCOCC3)ccc2[nH]1)NC1CC1 [AT-9283]
Kd [1]: > 30 µM (inactive) | Kd [2]: 0.927 µM (active) | Kd [12]: > 30 µM (inactive) | Kd [3]: > 30 µM (inactive) | Kd [4]: > 30 µM (inactive) | Kd (DNA topoisomerase 2-beta): > 30 µM (inactive) | Kd [5]: > 30 µM (inactive) | Kd [6]: 0.065 µM (active) | Kd [7]: > 30 µM (inactive) | Kd [8]: 0.021 µM (active) | Kd [9]: > 30 µM (inactive)

C#Cc1cccc(Nc2ncnc3cc(OC)c(OCCCCCCC(=O)NO)cc23)c1 [CUDC-101]
Kd [1]: > 30 µM (inactive) | Kd [2]: > 30 µM (inactive) | Kd [3]: > 30 µM (inactive) | Kd [4]: > 30 µM (inactive) | Kd (DNA topoisomerase 2-beta): > 30 µM (inactive) | Kd [5]: > 30 µM (inactive) | Kd [6]: > 30 µM (inactive) | Kd [7]: > 30 µM (inactive) | Kd [8]: > 30 µM (inactive) | Kd [9]: > 30 µM (inactive) | Kd [10]: > 30 µM (inactive) | Kd [11]: > 30 µM (inactive)

CCn1cc(-c2ccnc3[nH]c(-c4cccc(CN(C)C)c4)cc23)c(-c2ccc(NC(=O)N(C)C)cc2)n1 [GSK-1070916]
Kd [1]: > 30 µM (inactive) | Kd [2]: > 30 µM (inactive) | Kd [12]: > 30 µM (inactive) | Kd [3]: > 30 µM (inactive) | Kd [4]: > 30 µM (inactive) | Kd (DNA topoisomerase 2-beta): > 30 µM (inactive) | Kd [5]: > 30 µM (inactive) | Kd [6]: > 30 µM (inactive) | Kd [7]: > 30 µM (inactive) | Kd [9]: > 30 µM (inactive) | Kd [10]: > 30 µM (inactive) | Kd [11]: > 30 µM (inactive)

O=C(Nc1cc(C(F)(F)F)cc(C(F)(F)F)c1)c1cc(Cl)ccc1O [IMD-0354]
Kd [1]: > 30 µM (inactive) | Kd [2]: > 30 µM (inactive) | Kd [4]: > 30 µM (inactive) | Kd (DNA topoisomerase 2-beta): > 30 µM (inactive) | Kd [5]: > 30 µM (inactive) | Kd [6]: > 30 µM (inactive) | Kd [7]: > 30 µM (inactive) | Kd [8]: > 30 µM (inactive) | Kd [9]: > 30 µM (inactive) | Kd [10]: > 30 µM (inactive) | Kd [11]: > 30 µM (inactive)

Cn1cc(-c2cnc3ccc4ccc(CS(=O)(=O)NCc5ccccn5)cc4c(=O)c3c2)cn1 [MK-8033]
Kd [1]: > 30 µM (inactive) | Kd [2]: > 30 µM (inactive) | Kd [3]: > 30 µM (inactive) | Kd [4]: > 30 µM (inactive) | Kd (DNA topoisomerase 2-beta): > 30 µM (inactive) | Kd [5]: > 30 µM (inactive) | Kd [6]: > 30 µM (inactive) | Kd [7]: > 30 µM (inactive) | Kd [8]: > 30 µM (inactive) | Kd [9]: > 30 µM (inactive) | Kd [10]: > 30 µM (inactive) | Kd [11]: > 30 µM (inactive)

Cc1nc(Nc2n[nH]c3c2CN(C(=O)N[C@H](CN(C)C)c2ccccc2)C3(C)C)c2sccc2n1 [PF-03758309]
Kd [1]: > 30 µM (inactive) | Kd [12]: > 30 µM (inactive) | Kd [3]: > 30 µM (inactive) | Kd [4]: 29.7 µM | Kd (DNA topoisomerase 2-beta): > 30 µM (inactive) | Kd [5]: > 30 µM (inactive) | Kd [6]: > 30 µM (inactive) | Kd [7]: > 30 µM (inactive) | Kd [8]: 0.668 µM (active) | Kd [9]: > 30 µM (inactive) | Kd [10]: 0.057 µM (active)

CO[C@H]1C[C@@H]2CC[C@@H](C)[C@@](O)(O2)C(=O)C(=O)N2CCCC[C@H]2C(=O)O[C@H]([C@H](C)C[C@@H]2CC[C@@H](OP(C)(C)=O)[C@H](OC)C2)CC(=O)[C@H](C)/C=C(\C)[C@@H](O)[C@@H](OC)C(=O)[C@H](C)C[C@H](C)/C=C/C=C/C=C/1C [RIDAFOROLIMUS]
Kd [1]: > 30 µM (inactive) | Kd [2]: > 30 µM (inactive) | Kd [3]: > 30 µM (inactive) | Kd [4]: > 30 µM (inactive) | Kd (DNA topoisomerase 2-beta): > 30 µM (inactive) | Kd [5]: > 30 µM (inactive) | Kd [6]: > 30 µM (inactive) | Kd [7]: > 30 µM (inactive) | Kd [8]: > 30 µM (inactive) | Kd [9]: > 30 µM (inactive) | Kd [10]: > 30 µM (inactive) | Kd [11]: > 30 µM (inactive)

Cn1cc(-c2cnn3c(N)c(Br)c([C@@H]4CCCNC4)nc23)cn1 [SCH-900776]
Kd [1]: > 30 µM (inactive) | Kd [2]: > 30 µM (inactive) | Kd [3]: > 30 µM (inactive) | Kd [4]: > 30 µM (inactive) | Kd (DNA topoisomerase 2-beta): > 30 µM (inactive) | Kd [5]: > 30 µM (inactive) | Kd [6]: 0.279 µM (active) | Kd [7]: > 30 µM (inactive) | Kd [8]: > 30 µM (inactive) | Kd [9]: > 30 µM (inactive) | Kd [10]: 4.69 µM (active) | Kd [11]: 2.9 µM

CCS(=O)(=O)c1cccc(-c2cc(C(=O)NC3CCN(C)CC3)c(C)c3[nH]c4ncc(C)cc4c23)c1 [TAK-901]
Kd [1]: > 30 µM (inactive) | Kd [2]: > 30 µM (inactive) | Kd [12]: > 30 µM (inactive) | Kd [3]: > 30 µM (inactive) | Kd [4]: 4.59 µM (active) | Kd (DNA topoisomerase 2-beta): > 30 µM (inactive) | Kd [5]: > 30 µM (inactive) | Kd [6]: 28.9 µM (active) | Kd [7]: > 30 µM (inactive) | Kd [8]: 0.041 µM (active) | Kd [9]: > 30 µM (inactive) | Kd [11]: > 30 µM (inactive)
